Results taken from US11185593B2, “Alkylating agent for alkylating target with driver oncogene mutation” (Chiba Prefecture, priority 2013, dated 2021).
Where two headings read alike, the source gives them in different places.

Assays:
[1] = tested on: colon cancer and pancreatic cancer cell lines; assay: Cytotoxicity test on various cancer cells, summary by KRAS codon 12 status; type: cell-based; conditions: Homo sapiens
Protocol: (§1) Using colon cancer and pancreatic cancer cell lines, the cells were seeded in each well of a 96-well microplate, resulting in a cell density of 3000 to 5000 cells/well, and they were then cultured overnight. On the following day, the cells of each type were treated with KR12 recognizing a codon 12 mutation in concentrations of 1 nM, 10 nM, 30 nM, 100 nM, 300 nM, and 1 μM for 48 hours. Thereafter, a WST-8 reagent was added to each well, using cell counting kit-8, and the obtained mixture was then reacted for 2 hours. After that, the number of cells was counted at a wavelength of 450 nm according to a colorimetric analysis method using a microplate reader. The method of counting the number of cells comprises: 1) obtaining the mean value of the medium alone, 2) subtracting the mean value of the medium from each well, 3) obtaining the mean value of DMSO, 4) dividing the medium-subtracted value by the mean value of DMSO and then multiplying by 100, 5) obtaining the mean value of each treatment group and a standard deviation, and then preparing a graph. The calculation formula of IC50 is the following: IC50=10 (LOG (A/B)×(50−C)/(D−C)+LOG (B)), wherein A: a higher concentration of two concentrations sandwiching 50%, B: a lower concentration of two concentrations sandwiching 50%, C: inhibitory percentage at B, and D: inhibitory percentage at A. […]

[2] = tested on: KRAS gene; assay: Semi-quantitative analysis of gene expression by RT-PCR; type: cell-based, human; conditions: LS180 (KRAS gene codon 12 mutation), 50 nM, 48 hours, FIG. 11B
Protocol: HT29 and LS180 were each cultured in a 12-well plate. On the following day, the cells were treated with 50 nM KR12 or KR13, and were then cultured for 48 hours. Thereafter, the cultured cells were harvested, and RNA was then extracted. For the extraction, RT-PCR was carried out using RNeasy mini kit (Qiagen, CA). Subsequently, using the extracted RNA as a template, cDNA for reverse transcription was prepared by employing Super Script VILO cDNA Synthesis Kit (Invitrogen, CA). Using the prepared cDNA as a template, PCR was carried out. After a reaction had been carried out at 94° C. for 5 minutes, a reaction cycle of 94° C.-30 seconds, 55° C.-30 seconds, and 72° C.-30 seconds was repeated 20 times. Finally, an elongation reaction was carried out at 72° C. for 7 minutes. The PCR product was subjected to electrophoresis on 2% agarose gel. The amount of the PCR product was calculated using a photograph of a band stained with ethidium bromide.
The below-mentioned primer set was used in PCR.
A forward primer (sense) and a reverse primer (antisense), which amplify both mutant and wild-type KRAS genes, and a forward primer (sense) and a reverse primer (antisense) for an RPS18 (ribosomal protein S18) gene used as an internal standard are shown below.

[3] = tested on: LS180; assay: Cell growth of KR12-treated LS180 cells (FIG. 12B); type: cell-based, human; conditions: LS180, FIG. 12B
[4] = tested on: LS180 cells; assay: Cytotoxicity test, WST-8 (cell counting kit-8), 48 hours; type: cell-based, human; conditions: Homo sapiens
Protocol: Using LS180 colon cell line, the cells were seeded in each well of a 96-well microplate, resulting in a cell density of 3000 to 5000 cells/well, and they were then cultured overnight. On the following day, KR12 recognizing a codon 12 mutation, WT recognizing wild-type KRAS, and C12-Dp having the same structure as that of KR12, to which an alkylating agent had not been added, were each added to the cultured cells in concentrations of 1 nM, 10 nM, 30 nM, 100 nM, 300 nM, and 1 μM, and were then treated for 48 hours. Thereafter, a WST-8 reagent was added to each well, using cell counting kit-8 (DOJINDO), and the obtained mixture was then reacted for 2 hours. After that, the number of cells was counted at a wavelength of 450 nm according to a colorimetric analysis method using a microplate reader. The method of counting the number of cells comprises: 1) obtaining the mean value of the medium alone, 2) subtracting the mean value of the medium from each well, 3) obtaining the mean value of DMSO, 4) dividing the medium-subtracted value by the mean value of DMSO and then multiplying by 100, 5) obtaining the mean value of each treatment group and a standard deviation, and then preparing a graph. The calculation formula of IC50 is the following: IC50=10 (LOG (A/B)×(50−C)/(D−C)+LOG (B)), wherein A: a higher concentration of two concentrations sandwiching 50%, B: a lower concentration of two concentrations sandwiching 50%, C: inhibitory percentage at B, and D: inhibitory percentage at A.
as §1, with “graph.” for “graph. The calculation formula of IC50 is the following: IC50=10 (LOG (A/B)×(50−C)/(D−C)+LOG (B)), wherein A: a higher concentration of two concentrations sandwiching 50%, B: a lower concentration of two concentrations sandwiching 50%, C: inhibitory percentage at B, and D: inhibitory percentage at A.”

Structure (SMILES): CC(=O)Nc1cn(C)c(C(=O)Nc2cc(C(=O)NCCC(=O)Nc3cn(C)c(C(=O)Nc4cn(C)c(C(=O)Nc5cc(C(=O)Nc6cn(C)c(C(=O)NCCCC(=O)Nc7cc(C(=O)Nc8cn(C)c(C(=O)NCCC(=O)Nc9cc(C(=O)Nc%10cc(C(=O)Nc%11ccc%12[nH]c(C(=O)N%13CC(CCl)c%14c%13cc(O)c%13ccccc%14%13)cc%12c%11)n(C)c%10)n(C)c9)n8)n(C)c7)n6)n(C)c5)n4)n3)n(C)c2)n1 (stereo not drawn) [KR12]
- IC50 ([1]; SW1463, DLD-1, HT-29 and Caco-2, cell lines which do not have a codon 12 mutation recognized by KR12): ≥ 100 nM
- IC50 ([1]; cell lines having a codon 12 mutation, which is recognized by KR12): ≤ 100 nM
- expression of the KRAS gene [2]: significantly suppressed
- cell growth [3]: suppressed
- IC50 ([4]; LS180, KRAS G12D Hetero, Table 1, read-out: KR12 IC50): 42 nM
- IC50 ([4]; LS180 cells, WST-8, FIG. 8, read-out: IC50): 53 nM
